Measurements from publication PMC8533176, “1,5-Benzodiazepin-2(3H)-ones: In Vitro Evaluation as Antiparkinsonian Agents” (Antioxidants, 2021).

Columns and labels:
[1] = system: HepG2 cells; experiment: Cytotoxicity, MTT assay, HepG2; format: cell-based; details: Homo sapiens, HepG2; MTT, cytotoxicity; read-out: HepG2 IC50
Outline: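 Cells treated with 5–200 µM compound (DMSO vehicle, four replicates) after overnight attachment. Viability read by MTT reduction (2 h, 37 °C, dark; formazan in DMSO, A570) relative to vehicle controls; IC50 from dose–response regression.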

[2] = system: SH-SY5Y cells; experiment: LDH release under H2O2; format: cell-based, human; details: H2O2 250 µM 24 h; compounds 24 h before; Figure 9
[3] = system: SH-SY5Y cells; experiment: Intracellular ROS levels (DCFH2-DA); format: cell-based, human; details: 400 µM H2O2 4 h; compounds 24 h before
Protocol: Intracellular ROS levels were determined using dichlorofluorescein diacetate (DCFH2-DA) according to Wang et al.. DCFH2-DA is cleaved by intracellular esterases and is oxidized by ROS to form the fluorescent compound DCF, which represents the ROS level. Therefore, 3 × 10^3 SH-SY5Y cells were seeded in 96-well culture black clear bottom plates and after 24 h were treated with the test compound for an additional 24 h. Then, they were exposed to H2O2 for 4 h. After the incubation period, cells were washed twice with Hanks buffer and loaded with 20 µM DCFH2-DA (in FBS-free culture medium) for 40 min in dark at 37 °C in a CO2 incubator. At the end of the dye incubation period, they were washed twice with Hanks buffer to remove the extracellular DCFH2-DA. Fluorescence was measured with a Varioskan microplate reader at λex = 485 nm and λem = 535 nm wavelengths. Results are expressed as a percentage of the fluorescent increase compared with that of the control. All the experiments were performed at least three times in quadruplicate for each compound concentration.

[4] = Kinetic solubility by UV spectrometry; format: physicochemical; details: PBS 50 mM, aqueous buffer, kinetic from dmso stock
Outline: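 Compound from 20 mM DMSO stock was added to 10 mM PBS, shaken 2 h and filtered. The filtrate's UV absorbance (270–600 nm) was quantified against a 10–200 µM calibration curve in 50 mM PBS with 2% DMSO. Run in triplicate.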

[5] = system: SH-SY5Y cells; experiment: Lipid peroxidation (MDA, TBARS); format: cell-based, human; details: 250 µM H2O2 24 h; 10 and 20 µM 24 h before
Protocol: For MDA studies, 2 × 10^5 SH-SY5Y cells were seeded in 6-well culture plates. After 24 h, cells were treated with the test compound and incubated for another 24 h. After compound treatment, cells were exposed to H2O2 for 24 h. Then, the cells were washed twice with cold 50 mM PBS buffer, detached, and lysed with lysis buffer, and TBA was added to each sample tube and vortexed. The reaction mixture was incubated at 96 °C for 60 min. After incubation, samples were cooled and centrifuged 10 min at 10^4 rpm. Samples were dispensed in 96-well culture black clear bottom plates, and fluorescence was measured with a Varioskan microplate reader at λex = 540 nm and λem = 590 nm wavelengths. Protein concentration was measured by the Bradford protein assay. The levels of MDA were expressed as nmol/mg protein. Experiments were performed four times in triplicate.

[6] = system: SH-SY5Y cells; experiment: Mitochondrial membrane potential (JC-1); format: cell-based, human; details: 400 µM H2O2 4 h; compounds 24 h before at different concentrations
Protocol: The fluorescent dye 5,5′,6,6′-tetrachloro-1,1′,3,3′-tetraethylbenzimidazolylcarbocyanine iodide (JC-1) was used for measuring MMP [89]. A decrease in fluorescence intensity represents mitochondrial membrane depolarization. For fluorescence ratio detection under oxidative stress conditions, 96-well culture black clear bottom plates were seeded with 3 × 10^3 SH-SY5Y cells, and after 24-h incubation, they were treated with the test compound and left out for 24 h. Then, the cells were exposed to different H2O2 concentrations for 4 h. After the incubation period, the cells were washed twice with Hanks buffer and then stained with 5 µM JC-1 in culture media in the dark in a CO2 incubator at 37 °C for 20 min. At the end of the dye incubation period, cells were washed three times with Hanks buffer, and 200 µL of fresh buffer was added. Cells were analyzed with a Varioskan microplate reader. J-aggregate red fluorescence intensity was measured at λex = 535 nm and λem = 595 nm, while λem = 485 nm and λem = 535 nm was used for J-monomer green fluorescence. Results were expressed as the ratio of fluorescence intensity of J-aggregates to J-monomers. All the experiments were performed three times in quadruplicate for each compound concentration.

For O=C1CC(c2ccccc2)=Nc2ccccc2N1 [Compound 18, 4-Phenyl-1H-1,5-benzodiazepin-2(3H)-one], the IC50 [1] was 224 ± 35 µM, the LDH leakage [2] was “significant reduction at all the concentrations tested” and the “Intracellular ROS level reduction” value [3] was “ROS level reduction at all doses”. For the same molecule, the solubility [4] was < 100 µM, the “Effect on MDA levels” value [5] was “significantly prevented” and the MMP recovery [6] was 10–25%.
